Experimental data: PMC5589090 (PLoS Medicine, 2017)
Values joined by “and” are separate entries in the source; they are usually repeats but may differ in a detail not shown here. Equal values may be shown once. Read-outs that look alike come from different tables or passages of the source.

Experiments:
[1] = system: Friend erythroleukemia cells; design: method as in ref 48 (a number printed in a supplementary file, which may have a reference list of its own: not looked up in the article's list); conditions: single exposure 0.4 µM; cited from earlier work
[2] = cited from earlier work
[3] = human starting dose 0.01 mg/kg
Procedure: To ensure safety in case of this possibility, decitabine pharmacokinetics are measured after single dose oral administration of decitabine and THU.

[4] = cited from earlier work; remark: listed apart in the source
[5] = Adverse events (CTCAE v 4.0), phase 1 trial NCT01685515 in SCD adults; conditions: cohorts 1-5
Source text: The primary endpoint was ≥ grade 3 non-hematologic toxicity.
For statistical comparisons of adverse events (AEs) between placebo and each dose group, we performed exact tests of the null hypothesis that the rate parameters of Poisson distributed AEs are equal. Relative risks are given as the ratio of such rate parameters. Thus, differences are insignificant if relative risks confidence intervals include 1. The R function poisson.test(), an exact test, was used. Pain, the most frequent AE, was analyzed similarly.

[6] = design: method as in ref 72 (a number printed in a supplementary file, which may have a reference list of its own: not looked up in the article's list); conditions: cited from earlier work
[7] = system: normal CD34+ hematopoietic stem and progenitor cells; conditions: cited from earlier work
[8] = system: LINE-1 repetitive element CpG; assay: Methylation level of LINE-1 repetitive element CpG by pyrosequencing in PBMC; type: in vivo, human
Procedure: DNA was purified from peripheral blood mononuclear cells (isolated by Ficoll-Hypaque density centrifugation) using the Wizard Genomic DNA Purification Kit (Promega). DNA was bisulfite-converted using EZ DNA Lightning Methylation kit (Zymo Research). The PCR primers were 10 pmol of 5′- […]-3′ and 10 pmol of biotinylated-5′-[…]-3′. PCR cycling conditions were: cycle temperature of 94°C for 30 seconds, 60°C for 30 seconds, and 72°C for 30 seconds, for 45 cycles to consume all the biotinylated primers. The biotinylated strand was captured on streptavidin sepharose beads (Amersham Biosciences, Uppsala, Sweden) and annealed with the sequencing primer 5′-[…]-3′. The methylation degree of long interspersed nuclear elements (LINE-1) was computed at 3 CpG sites pyrosequenced with the Pyromark Q24 Pyrosequencer (Qiagen) using the dispensation order […].

[9] = cited from earlier work; remark: listed apart in the source
[10] = rat, in vivo; cited from earlier work
[11] = system: THP1; conditions: 0.3 µM daily for 2-3 days; cited from earlier work
[12] = cited from earlier work; remark: listed apart in the source
[13] = cited from earlier work; remark: listed apart in the source
[14] = system: immortal phenotype; design: method as in ref 93 (a number printed in a supplementary file, which may have a reference list of its own: not looked up in the article's list); conditions: cited from earlier work
[15] = two daily treatments 0.5 µM, ref Investigators Brochure
[16] = Table B1, baseline before treatment, per subject, r10 Mean ±SD
[17] = Table B1, last 20 of 36 weeks of treatment, per subject, r10 Mean ±SD

## Nc1ncn([C@H]2C[C@H](O)[C@@H](CO)O2)c(=O)n1 [decitabine, 5-aza-2’-deoxycytidine]
[1]
  DNA methylation: decreased DNA methylation
  viability: did not decrease viability
[2]; 124 MDS subjects
  tolerability: well tolerated
[2]; MDS subjects with abnormal cytogenetics, 40-50 mg/m^2 3X/wk, courses every 6-8 weeks
  major cytogenetic responses: 31%
[2]; MDS subjects
  unusual patterns of cytogenetic instabilities: no unusual patterns of cytogenetic instabilities were found
[2]; MDS, 45 mg/m^2/day for 3 days every 6 weeks, ref Saba et al, 2004
  treatment related deaths: no treatment related deaths
[2]; over 1,000 patients with hematologic or solid tumors
  secondary malignancies: no reports of secondary malignancies
[2]; patients with myeloid malignancies, treated for years
  side effects of chronic metronomic very-low-dose decitabine: without significant side effects
[3]
  expected Cmax lower than Cmax […] with reversible toxicity in murine toxicology studies: 3,920 fold
[4]; hydrolysis and cytidine deaminase
  stability in plasma: very unstable in plasma
[4]; pH 7.4, 4 °C
  hydrolysis in aqueous solution every 7 hours: approximately 2.5%
[5]
  grade 4 AEs: no grade 4 AEs
[6]; SC decitabine, mean ± SD, r3 HU non-responders (n=3), r4 HU responders (n=5), r5 all patients (n=8)
  Max F-cell%: 55.1 ± 11.1% and 81.2 ± 4.4% and 71.4 ± 6.5%
[6]; all subjects
  recovery from neutropenia: within a week
[6]; baseline, mean ± SD, r3 HU non-responders, r4 HU responders, r5 all patients
  Pre-tx HbF%: 2.4 ± 1.6% and 9.0 ± 2.5% and 6.5 ± 1.4%
[6]
  local toxicity at SQ injection sites: No local toxicity
[6]; four subjects
  bone marrow aspirate spicule cellularity with treatment: no appreciable decrease
[6]; mean ± 2SD, pre-treatment 7.6 ± 2
  Total Hb, peak: 9.6 ± 1.8
[6]; mean ± SE, baseline
  Adh. to laminin, Pretherapy: 3470 ± 500 RBCs/mm^2
  Adhesion to TSP, Pretherapy: 1570 ± 170 RBCs/mm^2
  CRP, Pretherapy: 1.25 ± 0.27 mg/dL
  D-Dimer, Pretherapy: 490 ± 90 ng/mL
  F1+2, Pretherapy: 1.75 ± 0.22 nmol/L
  TAT, Pretherapy: 7.0 ± 1.7 µg/L
  VWFpp, Pretherapy: 196 ± 26 u/dL
  sVCAM, Pretherapy: 1170 ± 140 ng/mL
[6]; mean ± SE
  Adh. to laminin, Post Cycle 1: 1950 ± 300 RBCs/mm^2
  Adh. to laminin, Post Cycle 2: 1570 ± 210 RBCs/mm^2
  Adhesion to TSP, Post Cycle 1: 690 ± 150 RBCs/mm^2
  Adhesion to TSP, Post Cycle 2: 910 ± 160 RBCs/mm^2
  CRP, Post Cycle 1: 1.19 ± 0.34 mg/dL
  CRP, Post Cycle 2: 0.82 ± 0.26 mg/dL
  D-Dimer, Post Cycle 1: 320 ± 50 ng/mL
  D-Dimer, Post Cycle 2: 300 ± 50 ng/mL
  F1+2, Post Cycle 1: 1.56 ± 0.16 nmol/L
  F1+2, Post Cycle 2: 1.41 ± 0.15 nmol/L
  TAT, Post Cycle 1: 8.6 ± 2.3 µg/L
  TAT, Post Cycle 2: 5.2 ± 0.9 µg/L
  VWFpp, Post Cycle 1: 156 ± 28 u/dL
  VWFpp, Post Cycle 2: 144 ± 13 u/dL
  sVCAM, Post Cycle 1: 930 ± 100 ng/mL
  sVCAM, Post Cycle 2: 840 ± 100 ng/mL
[6]; one patient
  nadir ANC, NCI grade 4 neutropenia: 400 µL⁻¹
[6]; p=0.0006
  absolute reticulocyte count (ARC) during treatment: decreased
[6]; p=0.01
  total bilirubin during treatment: decreased
[6]; two patients
  nadir ANC, grade 3 neutropenia: 800 µL⁻¹
[7]; peak drug level
  level that causes measurable DNA damage and apoptosis/cytotoxicity: > 1.0 µM
[7]; [15]
  DNMT1 depletion: substantially depleted DNMT1
  phospho-H2AX, DNA scission or apoptosis: did not increase phospho-H2AX, DNA scission or apoptosis
[8]; decitabine […] (cohort 5) after THU 10 mg/kg 2X/week
  LINE-1 repetitive element CpG methylation decrease in PBMC: approximately 10%
[8]; lower decitabine doses (cohorts 1-4)
  LINE-1 CpG methylation decrease in PBMC: not with lower decitabine doses
[9]; 36 weeks, seven subjects
  cumulative hematologic or non-hematologic toxicities: No cumulative hematologic or non-hematologic toxicities
[9]; IV 0.3 mg/kg/day 5 days/week for 2 weeks, 6-week cycles
  ANC nadir at optimal drug dose: > 1500 cells/µL
[9]; [16]
  HbF (%) Pre: 3.12 ± 2.75% and 0.8% and 6.8% and 1.4% and 0.6% and 2.9% and 6.2%
  Total Hemoglobin Pre: 7.32 ± 0.94 g/dL and 6.2 g/dL and 8.2 g/dL and 6.0 g/dL and 7.2 g/dL and 8.0 g/dL and 7.8 g/dL
[9]; [17]
  HbF (%) Avg: 13.93 ± 2.35% and 12.40 ± 1.25% and 14.55 ± 1.32% and 12.75 ± 2.28% and 10.80 ± 2.05% and 16.42 ± 2.81% and 16.70 ± 2.55%
  HbF (%) Max: 18.35 ± 4.46% and 14.4% and 16.3% and 17.2% and 24.6% and 23.2%
  Total Hemoglobin Avg: 8.81 ± 0.42 g/dL and 9.05 ± 0.48 g/dL and 9.37 ± 0.60 g/dL and 8.34 ± 0.55 g/dL and 8.28 ± 0.52 g/dL and 8.91 ± 0.57 g/dL and 8.92 ± 0.79 g/dL
  Total Hemoglobin Max: 9.73 ± 0.53 g/dL and 9.6 g/dL and 10.3 g/dL and 9.5 g/dL and 9.0 g/dL and 10.4 g/dL
[9]; base-line […] ± 2.75%
  average HbF during the last twenty weeks of treatment: 13.93 ± 2.35%
  average maximal HbF during the last twenty weeks of treatment: 18.35% ± 4.46%
[9]
  maximal F-cell numbers, average over all 7 subjects: 69 ± 10.12%
  period of neutropenia: 1 to 3 days
[9]; last 20 weeks, base-line of 7.23 ±2.35 g/dL
  average hemoglobin: 8.81 ± 0.42 g/dL
[9]; pretreatment average 4600 ± 1560, in cells/µL (unit assumed)
  average ANC during the last 20 weeks of treatment: 4200 ± 1350
[9]; range over subjects
  individual maximal F-cell numbers: 58 - 87%
[10]
  embryo toxicity: fetal resorption and fetal defects
[11]
  DNMT1 protein expression: profoundly decreased DNMT1 protein expression
  phosphorylation of H2AX: did not increase phosphorylation of H2AX
  viability: did not decrease the viability
[12]; at the 6th week
  Platelet counts, average increase: 2.2 fold
[12]
  time to maximum HbF: ≤ 4 weeks
[12]; in 6 of 8 subjects
  Total Hb increase: 1 g/dL
[12]; nadir at 6 weeks
  transient decline in neutrophils: 3 fold
[13]; 13 SCD and 5 β-thalassemia intermedia patients, SC decitabine 12-36 weeks
  clinical adverse events attributed to decitabine: no clinical adverse events attributed to decitabine
[13]; SCD study of decitabine
  platelet count increases to: > 8e+11 L⁻¹
[13]; parenteral decitabine 2–3X/week, plateau after 12 weeks, SCD patients without HbF response to hydroxyurea
  HbF increase from baseline: > 10%
[13]; sickle cell study, subcutaneous decitabine
  platelet count increases to: ~ 1000 x 10^9/L
[14]
  immortal phenotype: reversed the immortal phenotype
